{"source": "patent US20200024278A1", "about": "“COMPOSITION COMPRISING ANTIBIOTIC COMPOUND AND AN HETEROCYCLIC COMPOUND AND THEIR USE IN PREVENTING OR TREATING BACTERIAL INFECTIONS” (MUTABILIS, priority 2016, published 2020)", "test_in_all_cases": "MIC, broth microdilution (CLSI), substance alone or ATB combined with compound at 4 or 8 μg/mL", "assay_type_in_all_cases": "cell-based, A. baumannii", "key": {"[1]": {"tested_on": "ABA UFR159", "method": "(§1) Compounds of the present invention were assessed against genotyped bacterial strains alone or in combination with an antibacterial. In the assays, MICs of said compounds or combination of antibiotics with fixed concentrations of said compounds (4 or 8 μg/mL) were determined by the broth microdilution method according to the Clinical Laboratory Standards Institute (CLSI-M7-A7). Briefly, compounds alone according to the invention were prepared in DMSO and spotted (2 μL each) on sterile polystyrene plates (Corning, 3788). Combinations of compounds and antibiotics dilutions were prepared in DMSO and spotted (1 μL each) on sterile polystyrene plates (Corning, 3788). Log phase bacterial suspensions were adjusted to a final density of 5·10^5 CFU/mL in cation-adjusted Mueller-Hinton broth (ca-MHB; Becton-Dickinson and Company) and added to each well (98 μL). Assays including Fosfomycin were supplemented with 25 μg/ml of Glucose-6-phosphate. Microplates were incubated for 16-20 h at 35° C. in ambient air. The MIC of the compounds was defined as the lowest concentration of said compounds that prevented bacterial growth as read by visual inspection. The MIC of ATB at each compound concentration was defined as the lowest concentration of ATB that prevented bacterial growth as read by visual inspection."}, "[2]": {"tested_on": "ABA 19606", "method": "as §1"}, "[3]": {"tested_on": "ABA UFR153", "method": "as §1"}, "[4]": {"tested_on": "ABA UFR158", "method": "as §1"}, "[5]": {"tested_on": "ABA UFR152", "method": "as §1"}, "[6]": {"tested_on": "ABA UFR160", "method": "as §1"}, "[7]": {"tested_on": "ABA UFR161", "method": "as §1"}}}
{"smiles": "CC1(C)[C@H](C(=O)O)N2C(=O)C[C@H]2S1(=O)=O", "note": "[SUL]", "values": [{"measurement": "MIC ATB combined with Example 9 @4 μg/ml", "setting": "[1]; with Example 9 @4 μg/ml", "value": 128, "unit": "µg/mL"}, {"measurement": "MIC ATB combined with Example 10 @8 μg/ml", "setting": "[1]; with Example 10 @8 μg/ml", "value": 128, "unit": "µg/mL"}, {"measurement": "MIC ATB combined with Example 11 @8 μg/ml", "setting": "[1]; with Example 11 @8 μg/ml", "value": 128, "unit": "µg/mL"}, {"measurement": "MIC ATB combined with Example 12 @8 μg/ml", "setting": "[1]; with Example 12 @8 μg/ml", "value": 128, "unit": "µg/mL"}, {"measurement": "MIC ATB combined with Example 15 @4 μg/ml", "setting": "[1]; with Example 15 @4 μg/ml", "value": 128, "unit": "µg/mL"}, {"measurement": "MIC ATB alone", "setting": "[2]; antibiotic alone", "value": 1, "unit": "µg/mL"}, {"measurement": "MIC ATB combined with Example 1 @8 μg/ml", "setting": "[2]; with Example 1 @8 μg/ml", "value": 1, "unit": "µg/mL"}, {"measurement": "MIC ATB combined with Example 3 @8 μg/ml", "setting": "[2]; with Example 3 @8 μg/ml", "value": "<=0.25 μg/mL"}, {"measurement": "MIC ATB combined with Example 6 @8 μg/ml", "setting": "[2]; with Example 6 @8 μg/ml", "value": "<=0.25 μg/mL"}, {"measurement": "MIC ATB combined with Example 9 @4 μg/ml", "setting": "[2]; with Example 9 @4 μg/ml", "value": "<=0.25 μg/mL"}, {"measurement": "MIC ATB combined with Example 10 @8 μg/ml", "setting": "[2]; with Example 10 @8 μg/ml", "value": "<=0.25 μg/mL"}, {"measurement": "MIC ATB combined with Example 11 @8 μg/ml", "setting": "[2]; with Example 11 @8 μg/ml", "value": "<=0.25 μg/mL"}, {"measurement": "MIC ATB combined with Example 12 @8 μg/ml", "setting": "[2]; with Example 12 @8 μg/ml", "value": "<=0.25 μg/mL"}, {"measurement": "MIC ATB combined with Example 15 @4 μg/ml", "setting": "[2]; with Example 15 @4 μg/ml", "value": "<=0.25 μg/mL"}, {"measurement": "MIC ATB alone", "setting": "[3]; antibiotic alone", "value": 4, "unit": "µg/mL"}, {"measurement": "MIC ATB combined with Example 1 @8 μg/ml", "setting": "[3]; with Example 1 @8 μg/ml", "value": 1, "unit": "µg/mL"}, {"measurement": "MIC ATB combined with Example 3 @8 μg/ml", "setting": "[3]; with Example 3 @8 μg/ml", "value": "<=0.25 μg/mL"}, {"measurement": "MIC ATB combined with Example 6 @8 μg/ml", "setting": "[3]; with Example 6 @8 μg/ml", "value": "<=0.25 μg/mL"}, {"measurement": "MIC ATB combined with Example 9 @4 μg/ml", "setting": "[3]; with Example 9 @4 μg/ml", "value": 0.5, "unit": "µg/mL"}, {"measurement": "MIC ATB combined with Example 10 @8 μg/ml", "setting": "[3]; with Example 10 @8 μg/ml", "value": "<=0.25 μg/mL"}, {"measurement": "MIC ATB combined with Example 11 @8 μg/ml", "setting": "[3]; with Example 11 @8 μg/ml", "value": "<=0.25 μg/mL"}, {"measurement": "MIC ATB combined with Example 12 @8 μg/ml", "setting": "[3]; with Example 12 @8 μg/ml", "value": "<=0.25 μg/mL"}, {"measurement": "MIC ATB combined with Example 15 @4 μg/ml", "setting": "[3]; with Example 15 @4 μg/ml", "value": "<=0.25 μg/mL"}, {"measurement": "MIC ATB alone", "setting": "[4]; antibiotic alone", "value": 64, "unit": "µg/mL"}, {"measurement": "MIC ATB combined with Example 1 @8 μg/ml", "setting": "[4]; with Example 1 @8 μg/ml", "value": 16, "unit": "µg/mL"}, {"measurement": "MIC ATB combined with Example 3 @8 μg/ml", "setting": "[4]; with Example 3 @8 μg/ml", "value": 16, "unit": "µg/mL"}, {"measurement": "MIC ATB combined with Example 6 @8 μg/ml", "setting": "[4]; with Example 6 @8 μg/ml", "value": "<0.25", "unit": "µg/mL"}, {"measurement": "MIC ATB combined with Example 9 @4 μg/ml", "setting": "[4]; with Example 9 @4 μg/ml", "value": 16, "unit": "µg/mL"}, {"measurement": "MIC ATB combined with Example 10 @8 μg/ml", "setting": "[4]; with Example 10 @8 μg/ml", "value": 16, "unit": "µg/mL"}, {"measurement": "MIC ATB combined with Example 11 @8 μg/ml", "setting": "[4]; with Example 11 @8 μg/ml", "value": 16, "unit": "µg/mL"}, {"measurement": "MIC ATB combined with Example 12 @8 μg/ml", "setting": "[4]; with Example 12 @8 μg/ml", "value": 16, "unit": "µg/mL"}, {"measurement": "MIC ATB combined with Example 15 @4 μg/ml", "setting": "[4]; with Example 15 @4 μg/ml", "value": 32, "unit": "µg/mL"}, {"measurement": "MIC ATB alone", "setting": "[5]; antibiotic alone", "value": 4, "unit": "µg/mL"}, {"measurement": "MIC ATB combined with Example 1 @8 μg/ml", "setting": "[5]; with Example 1 @8 μg/ml", "value": 4, "unit": "µg/mL"}, {"measurement": "MIC ATB combined with Example 3 @8 μg/ml", "setting": "[5]; with Example 3 @8 μg/ml", "value": 1, "unit": "µg/mL"}, {"measurement": "MIC ATB combined with Example 6 @8 μg/ml", "setting": "[5]; with Example 6 @8 μg/ml", "value": 2, "unit": "µg/mL"}, {"measurement": "MIC ATB combined with Example 9 @4 μg/ml", "setting": "[5]; with Example 9 @4 μg/ml", "value": 2, "unit": "µg/mL"}, {"measurement": "MIC ATB combined with Example 10 @8 μg/ml", "setting": "[5]; with Example 10 @8 μg/ml", "value": 1, "unit": "µg/mL"}, {"measurement": "MIC ATB combined with Example 11 @8 μg/ml", "setting": "[5]; with Example 11 @8 μg/ml", "value": 1, "unit": "µg/mL"}, {"measurement": "MIC ATB combined with Example 12 @8 μg/ml", "setting": "[5]; with Example 12 @8 μg/ml", "value": 1, "unit": "µg/mL"}, {"measurement": "MIC ATB combined with Example 15 @4 μg/ml", "setting": "[5]; with Example 15 @4 μg/ml", "value": 2, "unit": "µg/mL"}, {"measurement": "MIC ATB alone", "setting": "[6]; antibiotic alone", "value": ">128", "unit": "µg/mL"}, {"measurement": "MIC ATB combined with Example 1 @8 μg/ml", "setting": "[6]; with Example 1 @8 μg/ml", "value": 64, "unit": "µg/mL"}, {"measurement": "MIC ATB combined with Example 3 @8 μg/ml", "setting": "[6]; with Example 3 @8 μg/ml", "value": 64, "unit": "µg/mL"}, {"measurement": "MIC ATB combined with Example 6 @8 μg/ml", "setting": "[6]; with Example 6 @8 μg/ml", "value": "<0.25", "unit": "µg/mL"}, {"measurement": "MIC ATB combined with Example 9 @4 μg/ml", "setting": "[6]; with Example 9 @4 μg/ml", "value": 64, "unit": "µg/mL"}, {"measurement": "MIC ATB combined with Example 10 @8 μg/ml", "setting": "[6]; with Example 10 @8 μg/ml", "value": 64, "unit": "µg/mL"}, {"measurement": "MIC ATB combined with Example 11 @8 μg/ml", "setting": "[6]; with Example 11 @8 μg/ml", "value": 64, "unit": "µg/mL"}, {"measurement": "MIC ATB combined with Example 12 @8 μg/ml", "setting": "[6]; with Example 12 @8 μg/ml", "value": 64, "unit": "µg/mL"}, {"measurement": "MIC ATB combined with Example 15 @4 μg/ml", "setting": "[6]; with Example 15 @4 μg/ml", "value": 64, "unit": "µg/mL"}, {"measurement": "MIC ATB alone", "setting": "[7]; antibiotic alone", "value": 128, "unit": "µg/mL"}, {"measurement": "MIC ATB combined with Example 1 @8 μg/ml", "setting": "[7]; with Example 1 @8 μg/ml", "value": 32, "unit": "µg/mL"}, {"measurement": "MIC ATB combined with Example 3 @8 μg/ml", "setting": "[7]; with Example 3 @8 μg/ml", "value": 16, "unit": "µg/mL"}, {"measurement": "MIC ATB combined with Example 6 @8 μg/ml", "setting": "[7]; with Example 6 @8 μg/ml", "value": 16, "unit": "µg/mL"}, {"measurement": "MIC ATB combined with Example 9 @4 μg/ml", "setting": "[7]; with Example 9 @4 μg/ml", "value": 8, "unit": "µg/mL"}, {"measurement": "MIC ATB combined with Example 10 @8 μg/ml", "setting": "[7]; with Example 10 @8 μg/ml", "value": 16, "unit": "µg/mL"}, {"measurement": "MIC ATB combined with Example 11 @8 μg/ml", "setting": "[7]; with Example 11 @8 μg/ml", "value": 8, "unit": "µg/mL"}, {"measurement": "MIC ATB combined with Example 12 @8 μg/ml", "setting": "[7]; with Example 12 @8 μg/ml", "value": 8, "unit": "µg/mL"}, {"measurement": "MIC ATB combined with Example 15 @4 μg/ml", "setting": "[7]; with Example 15 @4 μg/ml", "value": 16, "unit": "µg/mL"}]}
